Measurements as given in ChEMBL document CHEMBL1201862, “PubChem BioAssay data set” (2004).
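Interpolation was linear, between the two tested concentrations surrounding the appropriate level; five concentrations were tested over 48 hours in 96-well plates. GI50 marks 50% less growth.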 Activity calls are given as the source filed them. Cut-off read from the data, not from the text of the source: active = GI50 up to about 1.1 µM and inactive = higher.

Tests used:
Assay in all cases: inhibition of tumour cell growth, NCI panel, 48 h
BT-549 = system: BT-549
MCF7 = system: MCF7
MDA-N = system: MDA-N
DU-145 = system: DU-145
DMS-114 = system: DMS-114
DLD-1 = system: DLD-1
KM-20L2 = system: KM-20L2
LXFL 529 = system: LXFL 529
RXF 631 = system: RXF 631

Compound: N=C(N)SCCN1CCCCC1
- GI50 (BT-549): 25.1 µM (inactive)
- GI50 (MCF7): 16.6 µM (inactive)
- GI50 (MDA-N): 30.2 µM (inactive)
- GI50 (DU-145): 24.7 µM (inactive)

Compound: CCOC(=O)c1cc(-c2ccc(OC)c(OC)c2)cn1C
- GI50 (BT-549): > 10 µM (inactive)
- GI50 (MCF7): > 10 µM (inactive)
- GI50 (MDA-N): > 10 µM (inactive)
- GI50 (DU-145): > 10 µM (inactive)

Compound: Cc1ccc(N2C(=O)N(c3ccc(C)cc3)C3(SC=NN3C)C2=O)cc1 (configuration not stated)
- GI50 (DMS-114): 31.2 µM (inactive)
- GI50 (DLD-1): 67.6 µM (inactive)
- GI50 (KM-20L2): 44 µM (inactive)
- GI50 (LXFL 529): 64.1 µM (inactive)

Compound: CN1C(=O)C2(C)SC1(c1ccccc1)C1C(=O)N(c3ccccc3)C(=O)C12 (configuration not stated)
- GI50 (BT-549): > 100 µM (inactive)
- GI50 (MCF7): 48.5 µM (inactive)
- GI50 (MDA-N): > 100 µM (inactive)
- GI50 (DU-145): > 100 µM (inactive)

Compound: O=c1c2cc([N+](=O)[O-])ccc2nc2n1CCCCC2
- GI50 (BT-549): 78 µM (inactive)
- GI50 (MCF7): > 100 µM (inactive)
- GI50 (MDA-N): > 100 µM (inactive)
- GI50 (DU-145): > 100 µM (inactive)

Compound: CC(=O)Nc1cc2c3c(c1)CCCN3CCC2
- GI50 (BT-549): > 100 µM (inactive)
- GI50 (MCF7): > 100 µM (inactive)
- GI50 (MDA-N): > 100 µM (inactive)
- GI50 (DU-145): > 100 µM (inactive)

Compound: C/C(=N\NC(=S)Nc1ccc(C(=O)O)cc1)c1ccccn1
- GI50 (DMS-114): 23.1 µM (inactive)
- GI50 (DLD-1): 27.7 µM (inactive)
- GI50 (KM-20L2): 25.8 µM (inactive)
- GI50 (LXFL 529): 3.05 µM (inactive)

Compound: Cc1ccc(-c2cc(=O)c(=O)[nH][nH]2)cc1
- GI50 (BT-549): > 100 µM (inactive)
- GI50 (MCF7): > 100 µM (inactive)
- GI50 (MDA-N): > 100 µM (inactive)
- GI50 (DU-145): > 100 µM (inactive)

Compound: CC1(C)CCSC(/C=C/c2ccccc2)=N1
- GI50 (BT-549): 7.14 µM (inactive)
- GI50 (MCF7): 12.3 µM (inactive)
- GI50 (MDA-N): 12.4 µM (inactive)
- GI50 (DU-145): 35.8 µM (inactive)

Compound: CC1(CO)OC(n2cnc3cncnc32)CC1O (configuration not stated)
- GI50 (BT-549): > 100 µM (inactive)
- GI50 (MCF7): > 100 µM (inactive)
- GI50 (MDA-N): > 100 µM (inactive)
- GI50 (DU-145): > 100 µM (inactive)

Compound: CC1(c2ccc(F)cc2)C(C#N)C(=O)NC(=O)C1C#N (configuration not stated)
- GI50 (DMS-114): > 100 µM (inactive)
- GI50 (RXF 631): > 100 µM (inactive)
- GI50 (DLD-1): > 100 µM (inactive)
- GI50 (KM-20L2): > 100 µM (inactive)
- GI50 (LXFL 529): > 100 µM (inactive)

Compound: COC(=O)C1=CC2OC1(C)CCC2=O (configuration not stated)
- GI50 (DLD-1): 80.5 µM (inactive)
- GI50 (KM-20L2): > 100 µM (inactive)
- GI50 (LXFL 529): > 100 µM (inactive)

Compound: N/C(=N/O)N/N=C\c1cc(Cl)cc(Cl)c1O
- GI50 (DLD-1): 7.48 µM (inactive)
- GI50 (MCF7): 0.428 µM (active)
- GI50 (KM-20L2): 5.57 µM (inactive)

Compound: O=C1c2ccccc2-c2cccc3ccc(Cc4ccc5ccccc5c4)c1c23
- GI50 (RXF 631): > 100 µM (inactive)
- GI50 (DLD-1): > 100 µM (inactive)
- GI50 (KM-20L2): > 100 µM (inactive)

Compound: O=C1NC2NC3NC(=O)NC3NC2N1 (configuration not stated)
- GI50 (BT-549): > 100 µM (inactive)
- GI50 (MCF7): > 100 µM (inactive)
- GI50 (MDA-N): > 100 µM (inactive)
- GI50 (DU-145): > 100 µM (inactive)

Compound: CCOC(=O)c1cc(Cl)ccc1OC(N)=O
- GI50 (DMS-114): > 100 µM (inactive)
- GI50 (DLD-1): > 100 µM (inactive)
- GI50 (MCF7): > 100 µM (inactive)
- GI50 (KM-20L2): > 100 µM (inactive)

Compound: CN1CCC2(CC1)SC[C@H]1C(=O)N(c3ccc(Cl)cc3)C(=O)N12
- GI50 (BT-549): > 100 µM (inactive)
- GI50 (MCF7): > 100 µM (inactive)
- GI50 (MDA-N): > 100 µM (inactive)
- GI50 (DU-145): > 100 µM (inactive)

Compound: CC/C=C\C/C=C\C/C=C\CCCCCCCC(=O)OCC
- GI50 (DMS-114): > 100 µM (inactive)
- GI50 (DLD-1): > 100 µM (inactive)
- GI50 (KM-20L2): > 100 µM (inactive)
- GI50 (LXFL 529): > 100 µM (inactive)

Compound: O=C1CC(C(COCc2ccccc2)OCc2ccccc2)CC(=O)N1 (configuration not stated)
- GI50 (BT-549): 45 µM (inactive)
- GI50 (MCF7): > 100 µM (inactive)
- GI50 (MDA-N): > 100 µM (inactive)
- GI50 (DU-145): > 100 µM (inactive)

Compound: CC(C)(C)[Si](C)(C)O[C@@H](C(=O)OC1C=CCCC1)[C@@H](NC(=O)c1ccccc1)c1ccccc1 (some centres not stated)
- GI50 (BT-549): 51.1 µM (inactive)
- GI50 (MCF7): 14.8 µM (inactive)
- GI50 (MDA-N): 31 µM (inactive)
- GI50 (DU-145): 50.4 µM (inactive)

Compound: CN1C=C(C(N)=O)Cc2ccsc21
- GI50 (DMS-114): > 100 µM (inactive)
- GI50 (DLD-1): > 100 µM (inactive)
- GI50 (KM-20L2): > 100 µM (inactive)
- GI50 (LXFL 529): > 100 µM (inactive)

Compound: S=P1(Oc2ccccc2)NNP2(=NP(N3CC3)(N3CC3)=NP(N3CC3)(N3CC3)=N2)NN1 (configuration not stated)
- GI50 (DMS-114): > 100 µM (inactive)
- GI50 (RXF 631): > 100 µM (inactive)
- GI50 (DLD-1): > 100 µM (inactive)
- GI50 (LXFL 529): > 100 µM (inactive)

Compound: CN(CCCN=C=S)CCCN1c2ccccc2CCc2ccccc21
- GI50 (BT-549): 2.83 µM (inactive)
- GI50 (MCF7): 1.59 µM (inactive)
- GI50 (MDA-N): 1.71 µM (inactive)
- GI50 (DU-145): 1.83 µM (inactive)

Compound: c1ccc(C2N=C(c3ccccn3)C(c3ccccn3)=NC2c2ccccc2)cc1 (configuration not stated)
- GI50 (DMS-114): > 100 µM (inactive)
- GI50 (DLD-1): > 100 µM (inactive)
- GI50 (KM-20L2): > 100 µM (inactive)
- GI50 (LXFL 529): > 100 µM (inactive)

Compound: CC(C)(C1=NC(C(C)(C)C)CO1)C1=N[C@@H](C(C)(C)C)CO1 (some centres not stated)
- GI50 (DMS-114): > 100 µM (inactive)
- GI50 (DLD-1): > 100 µM (inactive)
- GI50 (KM-20L2): > 100 µM (inactive)
- GI50 (LXFL 529): > 100 µM (inactive)

Compound: O=C1Cc2ccccc2N1c1c(Cl)cccc1Cl
- GI50 (DMS-114): 29.1 µM (inactive)
- GI50 (RXF 631): > 100 µM (inactive)
- GI50 (DLD-1): 47.9 µM (inactive)
- GI50 (KM-20L2): 30.2 µM (inactive)
- GI50 (LXFL 529): 87.7 µM (inactive)

Compound: Cc1ccc(/C=C/C(=O)c2cc(CN(C)C)c(O)c(CN(C)C)c2)cc1
- GI50 (BT-549): 18.3 µM (inactive)
- GI50 (MCF7): 17.3 µM (inactive)
- GI50 (MDA-N): 15.2 µM (inactive)
- GI50 (DU-145): 30.2 µM (inactive)
